Measured values from ChEMBL document CHEMBL5226327, “Source and exploration of the peptides used to construct peptide-drug conjugates” (Eur J Med Chem, 2021).
Positions of bridges follow the written chain, without caps; N, C: chain ends. Non-standard residues stand in square brackets, D forms with d. Residues, ends and D or L forms follow the SMILES beside them. Pen = CC(C)(S)[C@H](N)C(=O)O

Assays:
HBL-100 = test: Inhibition of cell adhesion in human HBL-100 cells; assay type: functional, cell-based
A-375 = test: Inhibition of cell adhesion in human A-375 cells; assay type: functional, cell-based
HT-1080 = test: Inhibition of cell adhesion in human HT-1080 cells; assay type: functional, cell-based
Integrin alpha-5/beta-1 = Integrin alpha-5/beta-1 (Homo sapiens, UniProt P05556+P08648); test: Binding affinity to integrin alpha5beta1 (unknown origin) assessed as inhibition of integrin and fibronectin interaction; assay type: protein-complex assay
Chain of Integrin alpha-5/beta-1 (P05556 21-798 limits assumed): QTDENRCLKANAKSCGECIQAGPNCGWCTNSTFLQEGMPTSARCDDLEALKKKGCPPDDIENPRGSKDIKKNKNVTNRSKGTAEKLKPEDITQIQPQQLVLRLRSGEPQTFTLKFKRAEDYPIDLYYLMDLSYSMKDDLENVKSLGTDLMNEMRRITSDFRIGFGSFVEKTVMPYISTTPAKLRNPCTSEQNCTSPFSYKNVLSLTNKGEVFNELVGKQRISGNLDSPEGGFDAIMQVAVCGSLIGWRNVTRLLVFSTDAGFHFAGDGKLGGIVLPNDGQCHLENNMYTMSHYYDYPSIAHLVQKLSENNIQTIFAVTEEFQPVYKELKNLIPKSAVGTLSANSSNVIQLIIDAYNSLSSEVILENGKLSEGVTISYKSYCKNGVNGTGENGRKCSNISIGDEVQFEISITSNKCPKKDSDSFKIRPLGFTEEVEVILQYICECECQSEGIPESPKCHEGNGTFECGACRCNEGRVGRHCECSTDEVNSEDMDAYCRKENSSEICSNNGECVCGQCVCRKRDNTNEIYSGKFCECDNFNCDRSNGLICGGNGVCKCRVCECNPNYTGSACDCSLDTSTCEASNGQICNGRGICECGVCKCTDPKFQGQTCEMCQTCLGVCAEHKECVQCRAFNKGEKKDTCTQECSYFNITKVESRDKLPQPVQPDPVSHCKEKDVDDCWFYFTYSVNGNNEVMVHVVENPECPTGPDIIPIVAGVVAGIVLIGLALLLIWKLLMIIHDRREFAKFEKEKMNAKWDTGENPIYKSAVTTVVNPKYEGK
Chain of Integrin alpha-5/beta-1 (P08648 42-894 limits assumed): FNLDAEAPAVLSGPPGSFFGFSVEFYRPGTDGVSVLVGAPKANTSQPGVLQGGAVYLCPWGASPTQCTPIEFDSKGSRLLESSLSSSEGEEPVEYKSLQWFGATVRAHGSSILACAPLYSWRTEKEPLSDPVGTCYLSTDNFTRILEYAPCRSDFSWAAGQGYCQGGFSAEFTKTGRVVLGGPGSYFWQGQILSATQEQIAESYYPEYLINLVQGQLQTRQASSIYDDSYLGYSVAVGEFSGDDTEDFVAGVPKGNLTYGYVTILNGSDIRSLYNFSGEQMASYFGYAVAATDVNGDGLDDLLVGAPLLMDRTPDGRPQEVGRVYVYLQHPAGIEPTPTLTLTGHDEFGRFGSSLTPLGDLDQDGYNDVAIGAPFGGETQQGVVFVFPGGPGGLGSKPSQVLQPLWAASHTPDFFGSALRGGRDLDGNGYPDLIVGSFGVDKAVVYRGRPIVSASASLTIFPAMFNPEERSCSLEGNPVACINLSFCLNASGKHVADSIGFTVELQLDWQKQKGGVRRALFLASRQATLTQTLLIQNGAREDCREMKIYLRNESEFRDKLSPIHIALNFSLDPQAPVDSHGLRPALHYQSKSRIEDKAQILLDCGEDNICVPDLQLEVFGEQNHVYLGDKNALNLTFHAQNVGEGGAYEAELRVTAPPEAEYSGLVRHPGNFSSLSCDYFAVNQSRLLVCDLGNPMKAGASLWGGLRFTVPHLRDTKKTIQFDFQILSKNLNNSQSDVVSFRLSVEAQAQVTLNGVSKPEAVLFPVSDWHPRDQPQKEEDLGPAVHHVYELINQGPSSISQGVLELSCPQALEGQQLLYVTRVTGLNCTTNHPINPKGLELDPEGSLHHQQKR
Chain of Integrin alpha-5/beta-1 (P08648 895-1049 limits assumed): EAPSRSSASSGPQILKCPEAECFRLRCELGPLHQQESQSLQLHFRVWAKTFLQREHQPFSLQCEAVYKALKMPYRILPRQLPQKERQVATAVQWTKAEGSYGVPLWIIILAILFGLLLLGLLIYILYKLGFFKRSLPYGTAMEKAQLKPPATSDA

Row | SMILES | IC50 (HBL-100) | IC50 (A-375) | IC50 (HT-1080) | IC50 (Integrin alpha-5/beta-1)
1 | CC(=O)N[C@H]1CSSC(C)(C)[C@@H](C(N)=O)NC(=O)[C@H](Cc2ccccc2)NC(=O)[C@H](CC(=O)O)NC(=O)CNC(=O)[C@H](CCCNC(=N)N)NC1=O (Ac-CRGDF[Pen]-NH2; disulfide 1-6) | 100 nM | 100 nM | 100 nM | –
2 | CC[C@H](C)[C@H](NC(=O)[C@@H](N)C(C)C)C(=O)N[C@@H](CC(C)C)C(=O)N[C@H](C(=O)N[C@@H](CC(C)C)C(=O)N[C@@H](Cc1ccccc1)C(=O)O)C(C)C (H-VILVLF-OH) | – | – | – | 1560 nM
